Measured values as given in ChEMBL document CHEMBL1131868, “Alpha-trifluoromethylated acyloins induce apoptosis in human oral tumor cell lines” (1999).
Counter-ions that a name gives are not always drawn.

Columns and labels:
Type in all cases: functional
[1] = In vitro cytotoxic activity against human salivary gland tumor (HSG) cells.
[2] = In vitro cytotoxic activity against human squamous cell carcinoma (HSC-2) cells.
[3] = In vitro cytotoxic activity against human gingival fibroblasts (HGF).

Compound | CC50 [1] [µM] | CC50 [2] [µM] | CC50 [3] [µM]
O=C(C(=O)C(F)(F)F)c1ccccc1 | 390 | 79 | 510
COc1cccc2c1C(=O)c1c(O)c3c(c(O)c1C2=O)C[C@@](O)(C(=O)CO)C[C@@H]3O[C@H]1C[C@H](N)[C@H](O)[C@H](C)O1 [DOXORUBICIN HYDROCHLORIDE] |  | 4.1 | 
O=C(c1ccc[nH]1)C(F)(F)F | 1800 | 870 | 2100
COC(=O)CC(=O)C(F)(F)F | 1800 | 1300 | > 2900
O=C(CC(O)C(F)(F)F)c1ccccc1 (centres undefined) | 1500 | 240 | 1700
CC(=O)C(O)c1ccccc1 (centres undefined) | 2900 | 1700 | 3200
OC(Cc1ccccc1)C(F)(F)F (centres undefined) | 1300 | 460 | 1700
Cc1nc(CC(=O)C(F)(F)F)oc1C | 150 | < 68 | 77
CCCCCCC(=O)C(O)C(F)(F)F (centres undefined) | 220 | 90 | 790
O=C(Cc1ccccc1)C(O)C(F)(F)F (centres undefined) | 110 | 22 | 310
O=C(Cc1ccccn1)C(F)(F)F | 1600 | 620 | 2100
OC(c1ccccc1)C(F)(F)F (centres undefined) | 2100 | 1100 | 2200
O=C(c1ccccc1)C(F)(F)F | 2700 | > 2900 | > 2900
O=C(Cc1nc2ccccc2[nH]1)C(F)(F)F | 340 | 53 | 200
O=C(c1nc2ccccc2o1)C(F)(F)F | 1700 | 580 | 2200
O=C(Oc1ccccc1)N1C=C(C(=O)C(F)(F)F)CC1 | 270 | 230 | 620
O=C(c1ccccc1)C(O)C(F)(F)F (centres undefined) | 240 | 36 | 1300
C=CCOC(=O)N1C=C(C(=O)C(F)(F)F)CC1 | 240 | 110 | 140
O=C(Cc1ccccc1)C(F)(F)F | 1600 | 1400 | 2200
O=C(Cc1nc2ccccc2s1)C(F)(F)F | 390 | 150 | 430
O=C(CC(=O)C(F)(F)F)c1ccccc1 | 420 | 150 | 1400
O=C(c1cccs1)C(F)(F)F | 2700 | 1900 | > 2800
O=C(NCCCC(=O)C(O)C(F)(F)F)c1ccccc1 (centres undefined) | 400 | 31 | 420
O=C(OC1c2ccccc2-c2ccccc21)N1C=C(C(=O)C(F)(F)F)CC1 | 180 | 140 | 230
CC(=O)CC(=O)C(F)(F)F | 3200 | 2500 | > 3200
O=C(Cc1nc2ccccc2o1)C(F)(F)F | 79 | 43 | 630
O=C(c1c[nH]c2ccccc12)C(F)(F)F | 1300 | 94 | 2000
